{"source": "patent US7649010B2", "about": "“Carvedilol hydrobromide” (SmithKline Beechman Cork Limited, priority 2002, dated 2010)", "key": {"[1]": {"assay": "aqueous solubility of the crystalline salt compared with free base and other salts", "format": "physicochemical"}, "β-adrenoreceptor": {"test_system": "β-adrenoreceptor", "conditions": "cited from earlier work"}, "α-adrenergic": {"test_system": "α-adrenergic", "conditions": "cited from earlier work"}, "[2]": {"assay": "pKa of the α-hydroxyl secondary amine functional group", "format": "physicochemical", "source_text": "(§1) At lower pH values (i.e., at a pH of 1 to 4 in various buffer systems), solubility of carvedilol is limited by the solubility of its protonated form or its corresponding salt formed in-situ."}, "physchem": {"assay": "physchem", "conditions": "thermodynamic from solid", "source_text": "as §1"}, "[3]": {"assay": "solubility of the in-situ salt in acidic medium (simulated gastric fluid)", "format": "physicochemical", "conditions": "generated in-situ in an acidic medium, such as simulated gastric fluid"}}, "note": "Where a name gives a salt, the structure may show the parent alone.", "data": [{"smiles": "COc1ccccc1OCCNCC(O)COc1cccc2[nH]c3ccccc3c12", "note": "(stereo not shown) [carvedilol hydrobromide]", "values": [{"measurement": "solubility compared to the free base of carvedilol", "setting": "[1]; novel crystalline form", "result": "much higher solubility"}, {"measurement": "aqueous solubility relative to free base or other crystalline salts (hydrochloride)", "setting": "[1]; pure crystalline solid", "result": "much higher aqueous solubility"}]}, {"smiles": "COc1ccccc1OCCNC[C@H](O)COc1cccc2[nH]c3ccccc3c12", "note": "(single isomer, unassigned) [S(−) enantiomer]", "values": [{"measurement": "nonselective β-adrenoreceptor blocking activity", "setting": "β-adrenoreceptor", "result": "exhibited"}, {"measurement": "α-adrenergic blocking activity", "setting": "α-adrenergic", "result": "exhibited"}]}, {"smiles": "COc1ccccc1OCCNCC(O)COc1cccc2[nH]c3ccccc3c12", "note": "(racemic) [Carvedilol]", "values": [{"measurement": "pKa", "setting": "[2]", "result": 7.8}, {"measurement": "solubility", "setting": "physchem; pH 5, aqueous buffer", "result": "~100", "unit": "µg/mL"}, {"measurement": "solubility", "setting": "physchem; pH 7, aqueous buffer", "result": "~23", "unit": "µg/mL"}, {"measurement": "solubility", "setting": "physchem; pH 9, aqueous buffer", "result": "< 1", "unit": "µg/mL"}]}, {"smiles": "COc1ccccc1OCCNC[C@@H](O)COc1cccc2[nH]c3ccccc3c12", "note": "(single isomer, unassigned) [R(+) enantiomer]", "values": [{"measurement": "α-adrenergic blocking activity", "setting": "α-adrenergic", "result": "exhibited"}]}, {"smiles": "COc1ccccc1OCCNCC(O)COc1cccc2[nH]c3ccccc3c12.Cl", "note": "(stereo not shown) [hydrochloride salt of carvedilol]", "values": [{"measurement": "solubility relative to the protonated form of carvedilol", "setting": "[3]", "result": "less soluble"}]}]}
